# Results: patent publication US20140335203A1, “SYNERGISTIC BLENDS OF ANTIMICROBIALS USEFUL FOR CONTROLLING MICROORGANISMS IN INDUSTRIAL PROCESSES” (Hercules Incorporated, priority 2013, published 2014)
# Several values for one entry are separate records, joined by “and”; a condition that tells them apart may be missing. Identical values can stand only once. Like-named read-outs stand apart in the source and are kept apart here.
# Experiments:
# [1] = test system: Lactobacillus plantarum; assay: Minimal Inhibitory Concentration (MIC), two-fold dilution series in 96 well microplate, antimicrobial used alone; assay type: cell-based; conditions: pH 6; for MIC: Lactiplantibacillus plantarum
# Description: While there are various methods known to individuals skilled in the art for measuring levels of antimicrobial activity, in the following examples the endpoint used is known as the Minimal Inhibitory Concentration, or MIC. This is the lowest concentration of a substance or substances which can achieve complete inhibition of growth.
# In order to determine the Minimal Inhibitory Concentration, a two-fold dilution series of the antimicrobial is constructed with the dilutions being made in growth media. The dilutions are made in a 96 well microplate such that each well has a final volume of 280 μl of media and antimicrobial. […] After the dilution series is constructed the wells receive an inoculum of microbe suspended in growth media such that the final concentration of microbes in the well is ˜5×10^5 cfu/ml. In these examples the test microbe used is Lactobacillus plantarum. The cultures are incubated at an appropriate temperature for 18-24 hours, and the wells scored as positive or negative for growth based on a visual examination for turbid wells. A turbid well indicates growth has occurred.
# Minimal inhibitory concentrations were determined for both chlorine dioxide and citric acid at pH 6 using the protocol described above with Lactobacillus plantarum as the test microbe. Checkerboard synergy plates were constructed as described, the wells inoculated to a final concentration of ˜5×10^5 cfu/ml, incubated for 18-24 hours, and then scored visually for growth/no growth. […] Minimal inhibitory concentrations were determined for both chlorine dioxide and sodium propionate at pH 6 using the protocol described above with Lactobacillus plantarum as the test microbe. Checkerboard synergy plates wore constructed as described, the wells inoculated to a final concentration of ˜5×10^5 cfu/ml, incubated for 18-24 hours, and then scored visually for growth/no growth.
# (§1) Minimal inhibitory concentrations were determined for both chlorine dioxide and potassium benzoate at pH 6 using the protocol described above with Lactobacillus plantarum as the test microbe. Checkerboard synergy plates were constructed as described, the wells inoculated to a final concentration of ˜5×10^5 cfu/ml, incubated for 18-24 hours, and then scored visually for growth/no growth.
# as §1, with “ascorbic acid” for “potassium benzoate”
# [2] = test system: Lactobacillus plantarum; assay: Checkerboard synergy plates (MIC in combination, Synergy Index by Kull et al.); assay type: cell-based; conditions: pH 6
# Method: Minimal inhibitory concentrations were determined for both chlorine dioxide and citric acid at pH 6 using the protocol described above with Lactobacillus plantarum as the test microbe. Checkerboard synergy plates were constructed as described, the wells inoculated to a final concentration of ˜5×10^5 cfu/ml, incubated for 18-24 hours, and then scored visually for growth/no growth. […] Minimal inhibitory concentrations were determined for both chlorine dioxide and sodium propionate at pH 6 using the protocol described above with Lactobacillus plantarum as the test microbe. Checkerboard synergy plates wore constructed as described, the wells inoculated to a final concentration of ˜5×10^5 cfu/ml, incubated for 18-24 hours, and then scored visually for growth/no growth. […] Minimal inhibitory concentrations were determined for both chlorine dioxide and potassium benzoate at pH 6 using the protocol described above with Lactobacillus plantarum as the test microbe. Checkerboard synergy plates were constructed as described, the wells inoculated to a final concentration of ˜5×10^5 cfu/ml, incubated for 18-24 hours, and then scored visually for growth/no growth. […] Minimal inhibitory concentrations were determined for both chlorine dioxide and ascorbic acid at pH 6 using the protocol described above with Lactobacillus plantarum as the test microbe. […]
# [3] = test system: fermentation; conditions: cited from earlier work
# [4] = test system: Weisella confusa; conditions: cited from earlier work
compound,measurement,setting,value
"CCC(=O)[O-].[Na+] [Sodium Propionate, sodium propionate]","Sodium Propionate MIC (QB), used alone",[1],100000 ppm
same,"Sodium Propionate MIC (QB), used alone",[1]; listed as sodium propionate,"100,000 ppm"
"O=C(O)CC(O)(CC(=O)O)C(=O)O [Citric Acid, citric acid]","Citric Acid MIC (Qb), used in combination",[2]; in combination with ClO2,"390-12,500 ppm"
same,MIC,"[1]; read-out: Citric Acid MIC (QB), used alone",100 mg/mL
same,"Citric Acid MIC (QB), used alone",[1],100000 ppm
"O=C1O[C@H]([C@@H](O)CO)C(O)=C1O [Ascorbic Acid, ascorbic acid]",MIC,"[1]; read-out: Ascorbic Acid MIC (QB), used alone",10 mg/mL
Virginiamycin,concentration that will suppress fermentation,[3],over 2 mg/L
same,concentration required to inhibit growth of Weisella confusa,[4],over 25 mg/L
"[O][Cl+][O-] [ClO2, chlorine dioxide]","ClO2 MIC (Qa), used in combination",[2]; in combination with citric acid,15-60 ppm
same,"ClO2 MIC (QA), used alone",[1]; Table 1 (citric acid series),100 ppm
same,"ClO2 MIC (QA), used alone",[1]; Table 2 (sodium propionate series),115 ppm
same,"ClO2 MIC (QA), used alone",[1]; Table 3 (potassium benzoate series),115 ppm and 130 ppm
same,"ClO2 MIC (QA), used alone","[1]; Table 3 (potassium benzoate series), listed as chlorine dioxide",115 ppm and 130 ppm
same,"ClO2 MIC (QA), used alone",[1]; Table 4 (ascorbic acid series),67.5 ppm
"O=C([O-])c1ccccc1.[K+] [Potassium Benzoate, potassium benzoate]","Potassium Benzoate MIC (QB), used alone",[1],100000 ppm
same,"Potassium Benzoate MIC (QB), used alone",[1]; listed as potassium benzoate,"100,000 ppm"
